Reference: patent publication US12570656B2, “Purine compounds for treating disorders” (MARVEL BIOTECHNOLOGY, priority 2020, dated 2026)
Where “and” joins values, the source holds several entries; their conditions need not be identical. Equal entries are not always repeated. Where two headings read alike, the source gives them in different places.

Key:
[1] = Brain pharmacokinetics and brain/plasma ratio in male CD-1 mice (1 mg/kg i.v.); type: in vivo; conditions: for Brain concentration / Brain/plasma concentration ratio / Kp at 5 min / Kp at 0.25 h / Kp at 0.5 h / Kp at 8 h / concentration at 5 min / concentration at 0.25 h / concentration at 0.5 h / concentration at 1 h / concentration at 2 h / concentration at 4 h / concentration at 6 h / concentration at 8 h / Kp at 1 h / Kp at 2 h / Kp at 4 h / Kp at 6 h: 1 mg/kg bolus i.v.; for Brain/plasma concentration ratio: listed as 1a; for Kp at 5 min / Kp at 0.25 h / Kp at 0.5 h / Kp at 8 h: brain and plasma; for concentration at 5 min / concentration at 0.25 h / concentration at 0.5 h / concentration at 1 h / concentration at 2 h / concentration at 4 h / concentration at 6 h / concentration at 8 h: intravenous
Experimental: (§1) Male CD-1 mice were given either bolus 1 mg/kg i.v. or 3 mg/kg p.o. of the indicated compounds and plasma or brain concentrations were measured.
(§2) Where: • C0 concentration extrapolated to time zero following an i.v. dose • tmax time at which maximum concentration is observed • Cmax maximum observed concentration • Apparent t1/2 apparent terminal half-life • AUC0-tlast area under the concentration vs time curve from time 0 to the time of the last measurable concentration • AUC0-inf area under the concentration vs time curve from time 0 to infinity • CL systemic clearance • MRT0-inf mean residence time from time zero to infinity • Vss steady-state volume of distribution • F oral bioavailability=(Dose^iv*AUC^po)/(Dose^po*AUC^iv)*100

ADORA2A = ADORA2A (Homo sapiens, UniProt P29274); assay: GPCR screening, calcium flux (calcium mobilization), antagonist format; type: cell-based
ADORA2A, sequence (P29274 whole entry): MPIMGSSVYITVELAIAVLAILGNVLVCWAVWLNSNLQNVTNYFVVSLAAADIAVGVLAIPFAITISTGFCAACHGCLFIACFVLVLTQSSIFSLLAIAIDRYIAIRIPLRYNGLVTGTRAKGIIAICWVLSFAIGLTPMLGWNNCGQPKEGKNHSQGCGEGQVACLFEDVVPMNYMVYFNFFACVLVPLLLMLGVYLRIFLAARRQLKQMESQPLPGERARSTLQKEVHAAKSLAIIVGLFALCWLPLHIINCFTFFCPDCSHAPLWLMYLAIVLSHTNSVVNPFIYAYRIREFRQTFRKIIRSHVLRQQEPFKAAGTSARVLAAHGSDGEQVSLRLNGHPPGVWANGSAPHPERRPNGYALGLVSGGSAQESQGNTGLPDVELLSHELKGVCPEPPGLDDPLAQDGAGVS
Experimental: To ascertain whether the compounds are suitable A2aR antagonists, the compounds of formulae I, II, III, and IV were subjected to GPCR screening using A2aR as the target. The screening was done using the GPCR Screening and Profiling Services by Eurofins DiscoverX Corporation.
The compounds of formulae I, II, III, and IV were screened for GPCR activity using A2aR as the target.
Cell lines were expanded from freezer stocks according to standard procedures. Cells were seeded in a total volume of 20 μL into black-walled, clear-bottom, Poly-D-lysine coated 384-well microplates and incubated at 37° C. for the appropriate time prior to testing.
Assays were performed in 1× Dye Loading Buffer consisting of 1× Dye, 1× Additive A and 2.5 mM Probenecid in HBSS/20 mM Hepes. Probenicid was prepared fresh. Cells were loaded with dye prior to testing. Media was aspirated from cells and replaced with 20 μL Dye Loading Buffer. Cells were incubated for 30-60 minutes at 37° C.
For antagonist determination, cells were pre-incubated with sample followed by agonist challenge at the EC80 concentration. Intermediate dilution of sample stocks was performed to generate 3× sample in assay buffer. After dye loading, cells were removed from the incubator and 10 μL 3× sample was added. Cells were incubated for 30 minutes at room temperature in the dark to equilibrate plate temperature. Vehicle concentration was 1%. Compound antagonist activity was measured on a FLIPR Tetra (MDS). Calcium mobilization was monitored for 2 minutes and 10 μL EC80 agonist in HBSS/20 mM Hepes was added to the cells 5 seconds into the assay.
For antagonist and negative allosteric modulation mode assays, percentage inhibition is calculated using the following formula: % Inhibition=100%×(1−(mean RFU of test sample−mean RFU of vehicle control)/(mean RFU of EC80 control−mean RFU of vehicle control)).
When the calcium was released, the fluorescence of the dye was increased and the increase was measured in real-time.
FIGS. 1 to 6 show percent reacted (Y) versus concentration in μM (X). Compounds were tested in antagonist mode with the requested GPCR Biosensor Assay. For the antagonist assay, data was normalized to the maximal and minimal response observed in the presence of EC80 ligand and vehicle.

[2] = Plasma pharmacokinetics in male CD-1 mice (1 mg/kg i.v. or 3 mg/kg p.o.); conditions: CD-1, mouse, in vivo
Experimental: as §1, §2

[3] = male, CD-1, mouse, iv, brain, i.v. 1 mg/kg

Compound: CCn1c(=O)c2c(nc(/C=C/c3ccc(OC(F)F)c(OC(F)F)c3)n2C)n(CC)c1=O [Formula I, 8-[(E)-2-[3,4-bis(difluoromethoxy)phenyl]vinyl]-1,3-diethyl-7-methyl-purine-2,6-dione;hydrofluoride]
- Brain concentration ([1]; 5 min, individual animals 1-3): 851 ng/g and 682 ng/g
- Brain/plasma concentration ratio ([1]; 5 min, individual animals 1-3): 0.867 and 0.751
- Brain concentration ([1]; 0.25 h, individual animals 1-3): 426 ng/g and 665 ng/g
- Brain/plasma concentration ratio ([1]; 0.25 h, individual animals 1-3): 0.789 and 0.795
- Brain concentration ([1]; 0.5 h, individual animals 1-3): 282 ng/g and 381 ng/g
- Brain/plasma concentration ratio ([1]; 0.5 h, individual animals 1-3): 0.535 and 0.779
- Brain concentration ([1]; 1 h, individual animals 1-3): 318 ng/g and 175 ng/g
- Brain/plasma concentration ratio ([1]; 1 h, individual animals 1-3): 0.763 and 0.550
- Brain concentration ([1]; 2 h, individual animals 1-3): 195 ng/g and 185 ng/g
- Brain/plasma concentration ratio ([1]; 2 h, individual animals 1-3): 0.739 and 0.661
- Brain concentration ([1]; 4 h, individual animals 1-3): 158 ng/g and 198 ng/g
- Brain/plasma concentration ratio ([1]; 4 h, individual animals 1-3): 0.745 and 0.783
- Brain concentration ([1]; 6 h, individual animals 1-3): 138 ng/g and 122 ng/g
- Brain/plasma concentration ratio ([1]; 6 h, individual animals 1-3): 0.683 and 0.758
- Brain concentration ([1]; 8 h, individual animals 1-3): 118 ng/g and 114 ng/g
- Brain/plasma concentration ratio ([1]; 8 h, individual animals 1-3): 0.771 and 0.809
- AUC0-tlast ([1]; brain, i.v. 1 mg/kg): 1,447 h*ng/g
- AUC(0-inf) ([1]; brain, i.v. 1 mg/kg): 2807^a h*ng/g
- Kp at 5 min ([1]; male, CD-1, mouse, iv, 1 mg/kg, 5 min, individual animals 1-3, read-out: Brain/plasma concentration ratio): 0.757
- Kp at 5 min ([1]; male, CD-1, mouse, iv, 1 mg/kg, 5 min, read-out: Brain/plasma concentration ratio, Mean): 0.792
- Kp at 0.25 h ([1]; male, CD-1, mouse, iv, 1 mg/kg, 0.25 h, individual animals 1-3, read-out: Brain/plasma concentration ratio): 0.635
- Kp at 0.25 h ([1]; male, CD-1, mouse, iv, 1 mg/kg, 0.25 h, read-out: Brain/plasma concentration ratio, Mean): 0.74
- Kp at 0.5 h ([1]; male, CD-1, mouse, iv, 1 mg/kg, 0.5 h, individual animals 1-3, read-out: Brain/plasma concentration ratio): 0.731
- Kp at 0.5 h ([1]; male, CD-1, mouse, iv, 1 mg/kg, 0.5 h, read-out: Brain/plasma concentration ratio, Mean): 0.682
- Kp at 8 h ([1]; male, CD-1, mouse, iv, 1 mg/kg, 8 h, individual animals 1-3, read-out: Brain/plasma concentration ratio): 0.902
- Kp at 8 h ([1]; male, CD-1, mouse, iv, 1 mg/kg, 8 h, read-out: Brain/plasma concentration ratio, Mean): 0.827
- concentration at 5 min ([1]; male, CD-1, mouse, brain, 1 mg/kg, 5 min, individual animals 1-3, read-out: Brain concentration): 818 ng/g
- concentration at 5 min ([1]; male, CD-1, mouse, brain, 1 mg/kg, 5 min, read-out: Brain concentration, Mean): 784 ng/g
- concentration at 0.25 h ([1]; male, CD-1, mouse, brain, 1 mg/kg, 0.25 h, individual animals 1-3, read-out: Brain concentration): 373 ng/g
- concentration at 0.25 h ([1]; male, CD-1, mouse, brain, 1 mg/kg, 0.25 h, read-out: Brain concentration, Mean): 488 ng/g
- concentration at 0.5 h ([1]; male, CD-1, mouse, brain, 1 mg/kg, 0.5 h, individual animals 1-3, read-out: Brain concentration): 377 ng/g
- concentration at 0.5 h ([1]; male, CD-1, mouse, brain, 1 mg/kg, 0.5 h, read-out: Brain concentration, Mean): 347 ng/g
- concentration at 1 h ([1]; male, CD-1, mouse, brain, 1 mg/kg, 1 h, individual animals 1-3, read-out: Brain concentration): 269 ng/g
- concentration at 1 h ([1]; male, CD-1, mouse, brain, 1 mg/kg, 1 h, read-out: Brain concentration, Mean): 254 ng/g
- concentration at 2 h ([1]; male, CD-1, mouse, brain, 1 mg/kg, 2 h, individual animals 1-3, read-out: Brain concentration): 159 ng/g
- concentration at 2 h ([1]; male, CD-1, mouse, brain, 1 mg/kg, 2 h, read-out: Brain concentration, Mean): 180 ng/g
- concentration at 4 h ([1]; male, CD-1, mouse, brain, 1 mg/kg, 4 h, individual animals 1-3, read-out: Brain concentration): 120 ng/g
- concentration at 4 h ([1]; male, CD-1, mouse, brain, 1 mg/kg, 4 h, read-out: Brain concentration, Mean): 159 ng/g
- concentration at 6 h ([1]; male, CD-1, mouse, brain, 1 mg/kg, 6 h, individual animals 1-3, read-out: Brain concentration): 91.2 ng/g
- concentration at 6 h ([1]; male, CD-1, mouse, brain, 1 mg/kg, 6 h, read-out: Brain concentration, Mean): 117 ng/g
- concentration at 8 h ([1]; male, CD-1, mouse, brain, 1 mg/kg, 8 h, individual animals 1-3, read-out: Brain concentration): 110 ng/g
- concentration at 8 h ([1]; male, CD-1, mouse, brain, 1 mg/kg, 8 h, read-out: Brain concentration, Mean): 114 ng/g
- Kp at 1 h ([1]; male, CD-1, mouse, brain/plasma, iv, 1 mg/kg, 1 h, individual animals 1-3, read-out: Brain/plasma concentration ratio): 0.714
- Kp at 1 h ([1]; male, CD-1, mouse, brain/plasma, iv, 1 mg/kg, 1 h, read-out: Brain/plasma concentration ratio, Mean): 0.675
- Kp at 2 h ([1]; male, CD-1, mouse, brain/plasma, iv, 1 mg/kg, 2 h, individual animals 1-3, read-out: Brain/plasma concentration ratio): 0.572
- Kp at 2 h ([1]; male, CD-1, mouse, brain/plasma, iv, 1 mg/kg, 2 h, read-out: Brain/plasma concentration ratio, Mean): 0.657
- Kp at 4 h ([1]; male, CD-1, mouse, brain/plasma, iv, 1 mg/kg, 4 h, individual animals 1-3, read-out: Brain/plasma concentration ratio): 0.8
- Kp at 4 h ([1]; male, CD-1, mouse, brain/plasma, iv, 1 mg/kg, 4 h, read-out: Brain/plasma concentration ratio, Mean): 0.776
- Kp at 6 h ([1]; male, CD-1, mouse, brain/plasma, iv, 1 mg/kg, 6 h, individual animals 1-3, read-out: Brain/plasma concentration ratio): 0.86
- Kp at 6 h ([1]; male, CD-1, mouse, brain/plasma, iv, 1 mg/kg, 6 h, read-out: Brain/plasma concentration ratio, Mean): 0.767
- Kp ([1]; male, CD-1, mouse, brain/plasma, iv, 1 mg/kg, i.v. 1 mg/kg, read-out: Brain/plasma AUC0-tlast ratio): 0.71
- Cmax [1, 3]: 784 ng/g
- Tmax [1, 3]: 5 min
- half-life ([1]; male, CD-1, mouse, iv, brain, i.v. 1 mg/kg, read-out: Apparent t1/2 (converted)): 8.27 h
- MRT inf ([1]; male, CD-1, mouse, iv, brain, i.v. 1 mg/kg, read-out: MRT0-inf): 11.2 h
- Curve Bottom (ADORA2A; Antagonist format): 1.23
- Curve Top (ADORA2A; Antagonist format): 99
- Hill (ADORA2A; Antagonist format): 1.4103
- IC50 (ADORA2A; Antagonist format, EC80 0.021 μM NECA, read-out: RC50 (IC50)): 88.5 nM
- Emax (ADORA2A; Antagonist format, read-out: Max Response): 98.1%
- IC50 (ADORA2A; text to FIGS. 1-4, 6, antagonist mode, read-out: half maximal inhibitory concentration (IC50)): 88.5 nM and 75.5 nM
- bioavailability [2]: 76%
- AUC(0-inf) ([2]; iv, 1 mg/kg): 3240 ng·h/mL
- AUC(0-t) ([2]; iv, 1 mg/kg): 2040 ng·h/mL
- C0 ([2]; iv, 1 mg/kg): 1220 ng/mL
- Cmax ([2]; iv, 1 mg/kg): 990 ng/mL
- MRT inf ([2]; iv, 1 mg/kg): 8.02 h
- Tmax ([2]; iv, 1 mg/kg): 0.0833 h
- Vd ([2]; iv, 1 mg/kg): 2.47 L/kg
- clearance ([2]; iv, 1 mg/kg): 5.13 mL/min/kg
- half-life ([2]; iv, 1 mg/kg): 6 h
- AUC(0-inf) ([2]; po, 3 mg/kg): 5090 ng·h/mL
- AUC(0-t) ([2]; po, 3 mg/kg): 4650 ng·h/mL
- Cmax ([2]; po, 3 mg/kg): 424 ng/mL
- MRT inf ([2]; po, 3 mg/kg): 11.1 h
- Tmax ([2]; po, 3 mg/kg): 4 h
- half-life ([2]; po, 3 mg/kg): 6.52 h
